Measured values as given in the supplement of paper PMC11061612.

Experiments:
[1] = tested on: PC-3 (Prostate Carcinoma); experiment: combination Emax (second highest fraction inhibited in the dose matrix, 72 h); higher = more inhibition; extreme values may be limits of the assay
How it was run: (§1)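 Cell lines grown in DMEM/F12 or RPMI with 10% FBS were plated in 1536-well plates and held 24 hours at 37°C, 5% CO2 before 72 hours of exposure to two-drug dose matrices, with DMSO typically at 0.2%. CellTiter-Glo 2.0 luminescence gave viability, which was converted to inhibition. Vehicle wells were set to 0 and blank wells to 1. Combination Emax is the second-highest inhibition in the matrix, and Bliss excess is the observed combination effect minus the expected EA + EB − EA·EB, where EA and EB are the single-agent effects.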

[2] = tested on: SK-GT-4 (Esophageal Adenocarcinoma); experiment: Bliss excess, mean over the matrix (fraction); higher = more synergy
How it was run: as §1

[3] = tested on: IM-95 (Gastric Carcinoma); experiment: as above
How it was run: as §1

[4] = tested on: JHH-4 (Hepatocellular Carcinoma); experiment: as above
How it was run: as §1

[5] = tested on: CHSA8926 (Chondrosarcoma); experiment: as above
How it was run: as §1

[6] = tested on: T-T (Esophageal Squamous Cell Carcinoma); experiment: as above
How it was run: as §1

[7] = tested on: NCI-H2731 (Mesothelioma); experiment: as above
How it was run: as §1

[8] = tested on: H9 (T-Cell Non-Hodgkin's Lymphoma); experiment: as above
How it was run: as §1

[9] = tested on: NCI-H929 (Plasma Cell Myeloma); experiment: as above
How it was run: as §1

[10] = tested on: MOG-G-CCM (Low Grade Glioma); experiment: as above
How it was run: as §1

[11] = tested on: KY821 (Acute Myeloid Leukemia); experiment: as above
How it was run: as §1

[12] = tested on: KU812 (Chronic Myelogenous Leukemia); experiment: as above
How it was run: as §1

[13] = tested on: PC-3 (Prostate Carcinoma); experiment: as above
How it was run: as §1

[14] = tested on: HCC1187 (Breast Carcinoma); experiment: as above
How it was run: as §1

[15] = tested on: NCI-H520 (Squamous Cell Lung Carcinoma); experiment: as above
How it was run: as §1

[16] = tested on: NCI-H3122 (Lung Adenocarcinoma); experiment: as above
How it was run: as §1

[17] = tested on: RD (Rhabdomyosarcoma); experiment: as above
How it was run: as §1

[18] = tested on: SU-DHL-5 (B-Cell Non-Hodgkin's Lymphoma); experiment: as above
How it was run: as §1

[19] = tested on: NCI-H661 (Non-Small Cell Lung Carcinoma); experiment: as above
How it was run: as §1

[20] = tested on: SJSA-1 (Osteosarcoma); experiment: as above
How it was run: as §1
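Wherever Bliss excess, mean over the matrix is given: after 72 h of two-drug dosing.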

SMILES | combination Emax [1] | Bliss excess [2] | Bliss excess [3] | Bliss excess [4] | Bliss excess [5] | Bliss excess [6] | Bliss excess [7] | Bliss excess [8] | Bliss excess [9] | Bliss excess [10] | Bliss excess [11] | Bliss excess [12] | Bliss excess [13] | Bliss excess [14] | Bliss excess [15] | Bliss excess [16] | Bliss excess [17] | Bliss excess [18] | Bliss excess [19] | Bliss excess [20]
Cc1c2c(nn1C)CSCc1cc(n(C)n1)CSc1cc(c3ccccc3c1)OCCCc1c(C(=O)O)n(C)c3c-2c(Cl)ccc13 [AZD5991] + CCN(CCO)CCCOc1ccc2c(Nc3cc(CC(=O)Nc4cccc(F)c4)[nH]n3)ncnc2c1 [AZD2811] (first compound max 1 µM, 7x7, partner max 1 µM) | 0.305 | -0.0303 | 0.0605 | 0.0134 | 0.0305 | 0.0614 | -0.0023 | -0.0072 | 0.0409 | 0.0013 | 0.0053 | -0.0519 | -0.0328 | -0.0292 | 0.0632 | 0.0531 | 0.0268 | -0.06 | 0.0328 | 0.0839
C[C@@H]1COCCN1c1cc(C2([S@](C)(=N)=O)CC2)nc(-c2ccnc3[nH]ccc23)n1 [AZD6738] + O=C(c1cc(Cc2n[nH]c(=O)c3ccccc23)ccc1F)N1CCN(C(=O)C2CC2)CC1 [Olaparib] (first compound max 10 µM, 7x7, partner max 10 µM) | 0.514 | -0.046 | 0.031 | -0.0325 | 0.01 | -0.0237 | -0.0266 | 0.0058 | -0.0942 | 0.0005 | -0.0521 | -0.0429 | -0.0095 | 0.0586 | 0.044 | 0.0446 | 0.0312 | 0.002 | 0.039 | -0.0371
C=CCn1c(=O)c2cnc(Nc3ccc(N4CCN(C)CC4)cc3)nc2n1-c1cccc(C(C)(C)O)n1 [AZD1775] + C1CN(CCC1(C(=O)N[C@@H](CCO)C2=CC=C(C=C2)Cl)N)C3=NC=NC4=C3C=CN4 [Capivasertib] (first compound max 3 µM, partner max 3 µM) | 0.394 | -0.0802 | 0.0275 | 0.0061 | 0.0361 | -0.0047 | 0.0078 | -0.0311 | -0.0234 | -0.0224 | 0.0225 | -0.0326 | -0.0617 | 0.0216 | -0.0771 | -0.0298 | -0.034 | 0.0233 | -0.0905 | -0.0088
CN(CCO)CC[C@H](CSc1ccccc1)Nc1ccc(S(=O)(=O)NC(=O)c2ccc(N3CCC([C@@H](O)c4ccccc4-c4ccc(Cl)cc4)CC3)cc2)cc1S(=O)(=O)C(F)(F)F [AZD4320] + C[C@@H]1COCCN1C2=NC(=NC(=C2)C3(CC3)[S@](=N)(=O)C)C4=C5C=CNC5=NC=C4 [AZD6738] (first compound max 1 µM, 7x7, partner max 10 µM) | 0.584 | -0.0873 | -0.021 | -0.0657 | -0.011 | 0.0494 | -0.0178 | -0.0283 | -0.0097 | -0.0311 | -0.0241 | 0.0007 | -0.0367 | -0.0209 | -0.0547 | -0.0965 | -0.0334 | -0.0426 | -0.0197 | -0.113
COc1nnc2ccc(N3CCC(c4ccc(OCCN5CCN(C)C(=O)[C@H]5C)cc4)CC3)nn12 [AZD5153] + C=CCn1c(=O)c2cnc(Nc3ccc(N4CCN(C)CC4)cc3)nc2n1-c1cccc(C(C)(C)O)n1 [AZD1775] (first compound max 1 µM, partner max 1 µM) | 0.447 | -0.0369 | -0.0146 | 0.0205 | 0.0085 | -0.029 | 0.0147 | -0.0271 | -0.0551 | -0.0646 | -0.0266 | -0.0632 | -0.0118 | -0.0172 | -0.0115 | -0.0461 | -0.0171 | 0.0156 | -0.019 | -0.0313
NC1(C(=O)N[C@@H](CCO)c2ccc(Cl)cc2)CCN(c2ncnc3[nH]ccc23)CC1 [Capivasertib] + C[C@@H]1COCCN1C2=NC(=NC(=C2)C3(CC3)[S@](=N)(=O)C)C4=C5C=CNC5=NC=C4 [AZD6738] (first compound max 10 µM, 7x7, partner max 10 µM) | 0.593 | -0.0871 | -0.0093 | 0.0086 | -0.0179 | -0.0452 | -0.0267 | 0.0057 | -0.0009 | -0.0929 | -0.0558 | 0.0357 | -0.0389 | -0.0292 | -0.0357 | -0.0758 | -0.0453 | 0.0087 | -0.0645 | -0.0414
COc1cccc(OCCCN)c1-c1cc(Nc2cnc(C#N)cn2)n[nH]1 [Prexasertib] + C=CCn1c(=O)c2cnc(Nc3ccc(N4CCN(C)CC4)cc3)nc2n1-c1cccc(C(C)(C)O)n1 [AZD1775] (first compound max 1 µM, partner max 1 µM) | 0.442 | 0.0313 | 0.0876 | 0.0703 | -0.0416 | 0.208 | 0.0338 | 0.0958 | 0.15 | 0.0748 | 0.063 | -0.0401 | 0.0469 | 0.102 | 0.0421 | 0.124 | 0.0732 | 0.0644 | -0.0287 | -0.0243
COc1cccc2c1C(=O)c1c(O)c3c(c(O)c1C2=O)C[C@@](O)(C(=O)CO)C[C@@H]3O[C@H]1C[C@H](N)[C@H](O)[C@H](C)O1 [Doxorubicin] + Cc1cc2ncnn2cc1Nc1ncc2c(n1)n(C1CCOCC1)c(=O)n2C [AZD7648] (first compound max 1 µM, 7x7, partner max 10 µM) | 0.431 | -0.0081 | 0.016 | 0.0376 | -0.0053 | 0.0318 | 0.0506 | 0.0887 | 0.126 | 0.0213 | 0.0822 | 0.0256 | 0.0175 | 0.114 | 0.0158 | 0.031 | 0.0368 | 0.111 | 0.0465 | 0.0555
COc1cccc(OCCCN)c1-c1cc(Nc2cnc(C#N)cn2)n[nH]1 [Prexasertib] + C[C@@H]1COCCN1C2=NC(=NC(=C2)C3(CC3)[S@](=N)(=O)C)C4=C5C=CNC5=NC=C4 [AZD6738] (first compound max 1 µM, 7x7, partner max 10 µM) | 0.431 | -0.0233 | 0.0244 | 0.0024 | 0.0171 | 0.0178 | -0.0089 | -0.0023 | -0.0081 | -0.0254 | -0.0129 | -0.046 | -0.0102 | 0.0754 | -0.0481 | 0.0704 | 0.0085 | -0.0147 | -0.0655 | 0.0188
